# Results from PubChem BioAssay (NCI).
#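 96-well plates; 48 h exposure; 5 concentrations. Endpoints by linear interpolation between flanking doses. Not reached: highest tested concentration assigned. Abbreviation: GI50, concentration required for 50% inhibition of growth. TGI is the concentration that stops growth completely.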
# Columns and labels:
# Experiment in all cases: NCI tumour cell line growth inhibition, 48 h
# SN12C renal = test system: SN12C renal
# UACC-62 melanoma = test system: UACC-62 melanoma
# RXF 393 renal = test system: RXF 393 renal
# U251 CNS = test system: U251 CNS
# OVCAR-8 ovarian = test system: OVCAR-8 ovarian
# ACHN renal = test system: ACHN renal
# SNB-19 CNS = test system: SNB-19 CNS
# HOP-62 NSCLC = test system: HOP-62 NSCLC
# HOP-92 NSCLC = test system: HOP-92 NSCLC
# RPMI-8226 leukemia = test system: RPMI-8226 leukemia
# SK-MEL-5 melanoma = test system: SK-MEL-5 melanoma
# NCI-H23 lung = test system: NCI-H23 lung
# MCF7 breast = test system: MCF7 breast
# 786-0 renal = test system: 786-0 renal
# COLO 205 colon = test system: COLO 205 colon
# LOX IMVI melanoma = test system: LOX IMVI melanoma
# SF-539 CNS = test system: SF-539 CNS
# NCI/ADR-RES ovarian = test system: NCI/ADR-RES ovarian
# PC-3 prostate = test system: PC-3 prostate
# HT29 colon = test system: HT29 colon
# OVCAR-5 ovarian = test system: OVCAR-5 ovarian
# NCI-H226 lung = test system: NCI-H226 lung
# HCT-116 colon = test system: HCT-116 colon
# K-562 leukemia = test system: K-562 leukemia
# A549 NSCLC = test system: A549 NSCLC
# SW-620 colon = test system: SW-620 colon
# HCT-15 colon = test system: HCT-15 colon
# UO-31 renal = test system: UO-31 renal
# EKVX NSCLC = test system: EKVX NSCLC
# A498 renal = test system: A498 renal
# NCI-H460 lung = test system: NCI-H460 lung
# HL-60(TB) leukemia = test system: HL-60(TB) leukemia
# KM12 colon = test system: KM12 colon
# SF-295 CNS = test system: SF-295 CNS
# CAKI-1 renal = test system: CAKI-1 renal
# BT-549 breast = test system: BT-549 breast
# T-47D breast = test system: T-47D breast
# SK-MEL-2 melanoma = test system: SK-MEL-2 melanoma
# CCRF-CEM leukemia = test system: CCRF-CEM leukemia
# M14 melanoma = test system: M14 melanoma
# DU-145 prostate = test system: DU-145 prostate
# UACC-257 melanoma = test system: UACC-257 melanoma
# SF-268 CNS = test system: SF-268 CNS
# TK-10 renal = test system: TK-10 renal
# OVCAR-4 ovarian = test system: OVCAR-4 ovarian
# HS 578T breast = test system: HS 578T breast
# SK-OV-3 ovarian = test system: SK-OV-3 ovarian
# IGROV1 ovarian = test system: IGROV1 ovarian
# SK-MEL-28 melanoma = test system: SK-MEL-28 melanoma
# SNB-75 CNS = test system: SNB-75 CNS
# HCC-2998 colon = test system: HCC-2998 colon
# MOLT-4 leukemia = test system: MOLT-4 leukemia
# MDA-MB-435 = test system: MDA-MB-435
# SR leukemia = test system: SR leukemia
# NCI-H522 lung = test system: NCI-H522 lung
# OVCAR-3 ovarian = test system: OVCAR-3 ovarian
# MALME-3M melanoma = test system: MALME-3M melanoma
# MDA-MB-231 breast = test system: MDA-MB-231 breast
smiles,measurement,setting,value
O=C(NC(=S)Nc1ccccn1)c1ccccc1,GI50,SN12C renal,> 100 µM
same,TGI,SN12C renal,> 100 µM
same,GI50,UACC-62 melanoma,> 100 µM
same,TGI,UACC-62 melanoma,> 100 µM
same,GI50,RXF 393 renal,> 100 µM
same,TGI,RXF 393 renal,> 100 µM
same,GI50,U251 CNS,> 100 µM
same,TGI,U251 CNS,> 100 µM
same,GI50,OVCAR-8 ovarian,> 100 µM
same,TGI,OVCAR-8 ovarian,> 100 µM
same,GI50,ACHN renal,> 100 µM
same,TGI,ACHN renal,> 100 µM
same,GI50,SNB-19 CNS,> 100 µM
same,TGI,SNB-19 CNS,> 100 µM
same,GI50,HOP-62 NSCLC,> 100 µM
same,TGI,HOP-62 NSCLC,> 100 µM
same,GI50,HOP-92 NSCLC,83.9 µM
same,TGI,HOP-92 NSCLC,> 100 µM
same,GI50,RPMI-8226 leukemia,> 100 µM
same,TGI,RPMI-8226 leukemia,> 100 µM
same,GI50,SK-MEL-5 melanoma,> 100 µM
same,TGI,SK-MEL-5 melanoma,> 100 µM
same,GI50,NCI-H23 lung,> 100 µM
same,TGI,NCI-H23 lung,> 100 µM
same,GI50,MCF7 breast,1.97 µM
same,TGI,MCF7 breast,> 100 µM
same,GI50,786-0 renal,> 100 µM
same,TGI,786-0 renal,> 100 µM
same,GI50,COLO 205 colon,> 100 µM
same,TGI,COLO 205 colon,> 100 µM
same,GI50,LOX IMVI melanoma,> 100 µM
same,TGI,LOX IMVI melanoma,> 100 µM
same,GI50,SF-539 CNS,> 100 µM
same,TGI,SF-539 CNS,> 100 µM
same,GI50,NCI/ADR-RES ovarian,> 100 µM
same,TGI,NCI/ADR-RES ovarian,> 100 µM
same,GI50,PC-3 prostate,> 100 µM
same,TGI,PC-3 prostate,> 100 µM
same,GI50,HT29 colon,> 100 µM
same,TGI,HT29 colon,> 100 µM
same,GI50,OVCAR-5 ovarian,> 100 µM
same,TGI,OVCAR-5 ovarian,> 100 µM
same,GI50,NCI-H226 lung,> 100 µM
same,TGI,NCI-H226 lung,> 100 µM
same,GI50,HCT-116 colon,> 100 µM
same,TGI,HCT-116 colon,> 100 µM
same,GI50,K-562 leukemia,> 100 µM
same,TGI,K-562 leukemia,> 100 µM
same,GI50,A549 NSCLC,> 100 µM
same,TGI,A549 NSCLC,> 100 µM
same,GI50,SW-620 colon,> 100 µM
same,TGI,SW-620 colon,> 100 µM
same,GI50,HCT-15 colon,70.7 µM
same,TGI,HCT-15 colon,> 100 µM
same,GI50,UO-31 renal,39.2 µM
same,TGI,UO-31 renal,> 100 µM
same,GI50,EKVX NSCLC,85.2 µM
same,TGI,EKVX NSCLC,> 100 µM
same,GI50,A498 renal,50.8 µM
same,TGI,A498 renal,> 100 µM
same,GI50,NCI-H460 lung,> 100 µM
same,TGI,NCI-H460 lung,> 100 µM
same,GI50,HL-60(TB) leukemia,> 100 µM
same,TGI,HL-60(TB) leukemia,> 100 µM
same,GI50,KM12 colon,> 100 µM
same,TGI,KM12 colon,> 100 µM
same,GI50,SF-295 CNS,> 100 µM
same,TGI,SF-295 CNS,> 100 µM
same,GI50,CAKI-1 renal,> 100 µM
same,TGI,CAKI-1 renal,> 100 µM
same,GI50,BT-549 breast,> 100 µM
same,TGI,BT-549 breast,> 100 µM
same,GI50,T-47D breast,5.98 µM
same,TGI,T-47D breast,> 100 µM
same,GI50,SK-MEL-2 melanoma,> 100 µM
same,TGI,SK-MEL-2 melanoma,> 100 µM
same,GI50,CCRF-CEM leukemia,> 100 µM
same,TGI,CCRF-CEM leukemia,> 100 µM
same,GI50,M14 melanoma,> 100 µM
same,TGI,M14 melanoma,> 100 µM
same,GI50,DU-145 prostate,> 100 µM
same,TGI,DU-145 prostate,> 100 µM
same,GI50,UACC-257 melanoma,> 100 µM
same,TGI,UACC-257 melanoma,> 100 µM
same,GI50,SF-268 CNS,> 100 µM
same,TGI,SF-268 CNS,> 100 µM
same,GI50,TK-10 renal,> 100 µM
same,TGI,TK-10 renal,> 100 µM
same,GI50,OVCAR-4 ovarian,24.4 µM
same,TGI,OVCAR-4 ovarian,> 100 µM
same,GI50,HS 578T breast,71.5 µM
same,TGI,HS 578T breast,> 100 µM
same,GI50,SK-OV-3 ovarian,> 100 µM
same,TGI,SK-OV-3 ovarian,> 100 µM
same,GI50,IGROV1 ovarian,61.7 µM
same,TGI,IGROV1 ovarian,> 100 µM
same,GI50,SK-MEL-28 melanoma,> 100 µM
same,TGI,SK-MEL-28 melanoma,> 100 µM
same,GI50,SNB-75 CNS,> 100 µM
same,TGI,SNB-75 CNS,> 100 µM
same,GI50,HCC-2998 colon,> 100 µM
same,TGI,HCC-2998 colon,> 100 µM
same,GI50,MOLT-4 leukemia,> 100 µM
same,TGI,MOLT-4 leukemia,> 100 µM
same,GI50,MDA-MB-435,> 100 µM
same,TGI,MDA-MB-435,> 100 µM
same,GI50,SR leukemia,> 100 µM
same,TGI,SR leukemia,> 100 µM
same,GI50,NCI-H522 lung,> 100 µM
same,TGI,NCI-H522 lung,> 100 µM
same,GI50,OVCAR-3 ovarian,93.4 µM
same,TGI,OVCAR-3 ovarian,> 100 µM
same,GI50,MALME-3M melanoma,> 100 µM
same,TGI,MALME-3M melanoma,> 100 µM
same,GI50,MDA-MB-231 breast,> 100 µM
same,TGI,MDA-MB-231 breast,> 100 µM
